Patent US20240390295A1, “METHODS FOR TREATING DEPRESSION” (JANSSEN PHARMACEUTICA NV, priority 2020, published 2024)

How the values were obtained:
[1] = tested on: adult patients (aged 18-64 years) with TRD; assay: MOAA/S-defined sedation (score <5); format: in vivo, human
Description: For measuring treatment session induced sedation, one of skill in the art may use the Modified Observer's Assessment of Alertness/Sedation Scale (MOAA/S). […] For subjects with a score of 4, the assessment should be repeated every 15 minutes. And for subjects with a score of ≤3, the assessment should be repeated every 5 minutes until the score. In some embodiments, the results of the MOAA/S may be correlated to levels of sedation defined by the American Society of Anesthesiologists (ASA) continuum.
(§1) Vital signs, the Clinician-Administered Dissociative States Scale (CADSS), and the Modified Observer's Assessment of Alertness/Sedation (MOAA/S) were assessed at baseline and all treatment sessions (predose, and at 40 minutes, 1 hour [vital signs only unless spontaneously reported by the patient], and 1.5 hours postdose). Routine blood pressure (BP) readings were conducted at each treatment session, with elevations reported as AEs based on the clinician's judgement. The CADSS assessed treatment-emergent dissociative symptoms and consists of 23 questions, each coded on a 5-point scale (0=not at all, 1-mild, 2-moderate, 3=severe, 4-extreme), yielding a total score 0-92.11 A CADSS total score >4 indicated the presence of dissociative symptoms. The MOAA/S assessed treatment-emergent sedation: scores range from (=no response to painful stimulus to 5=readily responds to name spoken in normal tone. Any decrease in MOAA/s from pre-dose (score <5) indicated some degree of sedation. An abnormal elevation in BP was defined as systolic BP ≥180 mmHg and ≥20 mmHg higher than baseline and/or diastolic BP ≥105 mmHg and ≥15 mmHg greater than baseline.
(§2) This analysis included any treatment sessions in which patients received ESK (either open-label or blinded). The occurrence and severity of AEs were assessed within the following timeframes: Month 1 (Week 1 and Weeks 2-4), Month 2 (Weeks 5-8), Months 3-6 and Months 6-12. Severity of clinician-reported AEs were scored as 0 (no AE), 1 (mild), 2 (moderate), and 3 (severe). To examine AEs in individual patients over time, only patients who received at least one ESK dose in the following period were included in the analyses of each respective period. Thus, patient data were retained in (i) Week 1 if the patient received ≥1 ESK dose in Weeks 2-4, (ii) Weeks 2-4 if the patient received ≥1 ESK dose in Weeks 5-8, (iii) Weeks 5-8 if the patient received ≥1 ESK dose in Months 3-6, and (iv) Months 3-6 if the patient received ≥1 ESK dose in Months 6-12.

[2] = tested on: adult patients (aged 18-64 years) with TRD; assay: CADSS-defined dissociation (CADSS total score >4); format: in vivo, human; settings: for mean individual CADSS scores at recurrence: across follow-up timeframes
Excerpt: One of skill in the art would readily be able to measure a patient's adverse events from experience and one or more tools utilized to make such assessments. For example, the Clinician-Administered Dissociative States Scale (CADSS) is an technique utilized to measure present-state dissociative symptoms, and, thus, may be utilized to assess treatment-emergent dissociative symptoms. The CADSS consists of 23 subjective items, divided into 3 components: Depersonalization (Items 3 to 7, 20, and 23), derealization (Items 1, 2, 8 to 13, 16 to 19, and 21) and amnesia (Items 14, 15, and 22). Participant's responses are coded on a 5-point scale (0=not at all through to 4=extremely). Thus, higher CADSS values represent a worse dissociative state, whereas lower CADSS values are indicative of a mild dissociative state.
as §1, §2

[3] = tested on: adult patients (aged 18-64 years) with TRD; settings: cited from earlier work
[4] = Months 3-6, overall rate for timeframe
[5] = Months 6-12, AE twice in Week 1
[6] = Months 6-12, overall rate for timeframe
[7] = Week 1, overall rate for timeframe
[8] = Weeks 2-4, overall rate for timeframe
[9] = Weeks 5-8, overall rate for timeframe
[10] = human, in vivo, other: intranasal

Compound: CN[C@]1(c2ccccc2Cl)CCCCC1=O [esketamine, (S)-2-(2-chlorophenyl)-2-(methylamino)cyclohexanone]
- MOAA/S-defined sedation ([1]; Months 3-6, AE once in Week 1): 47.7%
- MOAA/S-defined sedation ([1]; Months 3-6, AE twice in Week 1): 74.5%
- MOAA/S-defined sedation ([1]; Months 3-6, No AE in Week 1): 23.8%
- MOAA/S-defined sedation [1, 4]: 37.5%
- MOAA/S-defined sedation ([1]; Months 6-12, AE once in Week 1): 38.3%
- MOAA/S-defined sedation [1, 5]: 51.8%
- MOAA/S-defined sedation ([1]; Months 6-12, No AE in Week 1): 18.8%
- MOAA/S-defined sedation [1, 6]: 28.4%
- MOAA/S-defined sedation [1, 7]: 38.1%
- MOAA/S-defined sedation ([1]; Weeks 2-4, AE once in Week 1): 65.7%
- MOAA/S-defined sedation ([1]; Weeks 2-4, AE twice in Week 1): 95.4%
- MOAA/S-defined sedation ([1]; Weeks 2-4, No AE in Week 1): 22.0%
- MOAA/S-defined sedation [1, 8]: 44.2%
- MOAA/S-defined sedation ([1]; Weeks 5-8, AE once in Week 1): 42.0%
- MOAA/S-defined sedation ([1]; Weeks 5-8, AE twice in Week 1): 81.4%
- MOAA/S-defined sedation ([1]; Weeks 5-8, No AE in Week 1): 15.8%
- MOAA/S-defined sedation [1, 9]: 33.1%
- MOAA/S mean recurrence scores ([1]; after Week 1 or Week 4, regardless of highest MOAA/S): 3.5-4.0
- MOAA/S mean recurrence score, single patient exception [1, 10]: 3.25
- measure-based sedation not reported during Week 1, patients ([1]; human, in vivo, other: intranasal, 1 week): 62%
- CADSS-defined dissociation ([2]; Months 3-6, AE once in Week 1): 42.7%
- CADSS-defined dissociation ([2]; Months 3-6, AE twice in Week 1): 61.3%
- CADSS-defined dissociation ([2]; Months 3-6, No AE in Week 1): 19.4%
- CADSS-defined dissociation [2, 4]: 38.6%
- CADSS-defined dissociation ([2]; Months 6-12, AE once in Week 1): 26.8%
- CADSS-defined dissociation [2, 5]: 38.7%
- CADSS-defined dissociation ([2]; Months 6-12, No AE in Week 1): 15.9%
- CADSS-defined dissociation [2, 6]: 25.9%
- CADSS-defined dissociation [2, 7]: 56.6%
- CADSS-defined dissociation ([2]; Weeks 2-4, AE once in Week 1): 59.1%
- CADSS-defined dissociation ([2]; Weeks 2-4, AE twice in Week 1): 88.8%
- CADSS-defined dissociation ([2]; Weeks 2-4, No AE in Week 1): 24.8%
- CADSS-defined dissociation [2, 8]: 53.1%
- CADSS-defined dissociation ([2]; Weeks 5-8, AE once in Week 1): 32.5%
- CADSS-defined dissociation ([2]; Weeks 5-8, AE twice in Week 1): 64.6%
- CADSS-defined dissociation ([2]; Weeks 5-8, No AE in Week 1): 15.6%
- CADSS-defined dissociation [2, 9]: 34.9%
- patients with maximum CADSS score >42 [2, 10]: < 3 patients
- measure-based dissociation not reported during Week 1, patients ([2]; human, in vivo, other: nasal spray (intranasal), 1 week): 43%
- mean individual CADSS scores at recurrence ([2]; maximum CADSS total score <=14): 1.2-1.4
- mean individual CADSS scores at recurrence ([2]; maximum CADSS total scores 15-24 and 24-42): 1.3-2.1
- incidence of dissociation, dizziness, nausea, sedation, vertigo ([3]; ESK plus OAD therapy): ≥ 5%
- incidence relative to placebo plus an OAD ([3]; five most common treatment-emergent events): ≥ 2 fold
